Results taken from PMC9459403, “New inhibitors of cathepsin V impair tumor cell proliferation and elastin degradation and increase immune cell cytotoxicity” (Computational and Structural Biotechnology Journal, 2022).

What was measured:
[1] = tested on: NK-92 effector cells on target K-562 cells; experiment: Calcein AM release assay (cytotoxicity); format: cell-based, human; details: effector cells treated 10 µM, 6 h
Procedure: (§1) Effector cells (NK-92 or TALL-104; 1 × 10^6/ml) were treated with E-64d (10 µM) or compound 7 (10 µM) for 6 h. NK-92 cells were pre-treated with 1000 IU IL2/mL overnight prior to the addition of inhibitors. Effector cells were added to a 96-well U-bottom plate to achieve a selected effector-to-target ratio (E:T). Target K-562 cells were labelled with 15 µM Calcein-AM (Sigma) in serum-free RPMI 1640 medium for 30 min at 37 °C. Cells were then washed twice and resuspended in complete RPMI 1640 medium. Target cells (n = 5000) were added to the effectors. The plate was centrifuged at 200 × g for 1 min and incubated at 37 °C and 5 % CO2 for 4 h. After incubation, the plate was centrifuged at 700 × g for 5 min. The supernatant (50 µL) was transferred to a new microtiter plate to measure the fluorescence of the released Calcein-AM with a Tecan M1000 microtiter plate reader using 496 nm excitation and 516 nm emission filters. The percentage of cytotoxicity was calculated as follows: 100(test release-spontaneous release)/(total release-spontaneous release). Spontaneous release was measured in wells containing only target cells. For total release, 2 % Triton X-100 was added to the wells to achieve lysis of target cells. Lytic units (LU) were calculated using the inverse of the number of effector cells needed to lyse 30 % of the target cells multiplied by 100.

[2] = tested on: TALL-104 effector cells on target K-562 cells; experiment: Calcein AM release assay (cytotoxicity); format: cell-based, human; details: effector cells treated 10 µM, 6 h
Procedure: as §1

K-562 cells = experiment: Cell viability assay (MTS); format: cell-based, human; details: 24 h
Procedure: The effect of compound 7 on the viability of NK-92, TALL-104, and K-562 cells was evaluated using the MTS [3-(4,5-dimethylthiazol-2-yl)-5-(3-carboxymetoxyphenyl)-2-(4-sulfophenyl)–2H-tetrazolium] colorimetric assay (CellTiter 96 Aqueous One Solution Cell Proliferation Assay, Promega, Madison, WI, USA). NK-92, TALL-104, and K-562 cells were seeded at 2.5 × 10^4, 1 × 10^5, and 1 × 10^4 cells/well, respectively, into a 96-well microplate and treated with inhibitors (2.5, 5, or 10 µM) or DMSO (0.1 %) for 24 h. After incubation, 10 µL of the reagent MTS was added to the wells, and the absorbance of formazan was measured at 492 nm on a Tecan Infinite M1000 (Mannedorf, Switzerland). Cell viability (%) was expressed as the ratio between absorbance in the presence of the compounds and in the presence of DMSO. All assays were performed in quadruplicate and repeated at least twice.

[3] = tested on: U-937-derived macrophages; experiment: Intracellular elastin-FITC degradation; format: cell-based, human
Procedure: To evaluate the effect of the inhibitors on the elastolytic activity of cathepsin V, we assessed the intracellular degradation of elastin-FITC, a soluble bovine neck ligament elastin that is heavily labeled with FITC such that the fluorescence of the conjugate is quenched. Upon proteolysis, fluorescence is recovered and can be detected. U-937 cells, differentiated into macrophage-like cells, were seeded (at 1 × 10^5 cells/well) into 24-well plates with 500 μL of medium supplemented with 50 nM PMA. Inhibitors or DMSO (0.1 %) and elastin-FITC (10 μg/mL; AnaSpec, Fermont, CA, USA) were added to the medium and incubated for 24 h at 37 °C. Cells were detached and washed with PBS, and propidium iodide (BD Bioscience) was added to exclude dead cells. Therefore, green fluorescence arising from elastin-FITC degradation was monitored only for viable cells. The measurement was performed using a FACSCalibur instrument (BD Biosciences).

Kinetic solubility = format: physicochemical; details: PBS pH 7.4 with 5 % DMSO, pH 7.4, aqueous with cosolvent or surfactant or cyclodextrin, kinetic from dmso stock; PBS with 5 % DMSO
Procedure: The solubility of compound 7 was determined in buffer (PBS pH 7.4) containing 5 % DMSO. Serial dilutions of 7 were prepared in DMSO at concentrations of 4 mM, 2 mM, 1.5 mM, 1 mM, and 0.2 mM. The assay was performed in 96-well microplates in duplicate. Briefly, to 190 µL of buffer, 10 µL of the compound stock solution in DMSO was added. The plate was shaken and the absorbance at 620 nm was measured using a plate reader (Synergy H4, BioTek Instruments, Inc., Santa Clara, CA, USA) in area scan mode (5 × 5 measurements per well). The mean absorbance was then compared relative to the blank to determine the solubility of the compound at each concentration tested.

[4] = tested on: cystatin F in U-937 cells; experiment: Western blot of cystatin F dimer-to-monomer ratio; format: cell-based, human; details: U-937 cell lysates, 6 h treatment, 10 and 20 μM, vs control
Procedure: Cells were treated with E-64d or compound 7 (both at 10 µM or 20 µM) for 6 h. After treatment, whole-cell lysates were prepared in RIPA buffer supplemented with cOmplete™ Protease Inhibitor Cocktail (Roche, Basel, Switzerland) and centrifuged at 16 000 × g for 20 min at 4 °C. Total protein concentration was determined using the DC assay (Biorad, Hercules, CA, USA). Proteins were separated by non-reducing SDS-PAGE and transferred to a nitrocellulose membrane using the TransBlot Turbo System (Biorad). After blocking, the membranes were incubated with primary antibodies overnight at 4 °C and with secondary antibodies for 1 h at room temperature. Bands were visualized using Clarity Max Western ECL substrate (Biorad), and protein loading was checked using Stain Free technology (Biorad). Images were acquired using the ChemiDoc ML Imaging System (Biorad), and quantification analysis was performed using Image Lab software (Biorad).
The following primary antibodies were used: rabbit anti-cystatin F (1:375, HPA040442, Sigma), goat anti-cathepsin V (1:200, AF 1080, R&D, USA), and mouse anti-GAPDH (1:3000, 10494-I-AP, Proteintech, USA). […]

For O=C(NCc1cccc2ccccc12)NCC1CCN(C(=O)Oc2ccccc2)CC1 [Compound 7, Phenyl 4-((3-(naphthalen-1-ylmethyl)ureido)methyl)piperidine-1-carboxylate], the “cytotoxicity of NK-92 cells (target cell killing)” value [1] was “significantly increased”, the “cytotoxicity of TALL-104 cells (target cell killing)” value [2] was “significantly increased” and the “viability of K-562 cells” value (K-562 cells; 10 μM) was “slightly decreased”. For the same molecule, the “viability of K-562 cells” value (K-562 cells; up to 5 μM) was “not decreased”, the “decrease of elastin-FITC degradation” value ([3]; 10 μM, 24 h, vs DMSO) was 9.5 ± 1.6% and the “elastin-FITC degradation, compound 7 added to CLIK-148” value ([3]; compound 7 10 μM + CLIK-148, vs control cells and CLIK-148 alone) was “significantly decreased”. The solubility kinetic (Kinetic solubility) was 75 to 100 µM and the “cystatin F dimer-to-monomer ratio” value [4] was “even further increased”.
